Measured values as given in US5856189A, “Cell culture model for drug bioavailability” (priority 1997, dated 1999).

Key:
CYP3A (Caco-2 cells) = CYP3A (Caco-2 cells) (Homo sapiens, UniProt P08684)
Method: Standards were also prepared in duplicate. Known amounts of MDZ and 1'-OH-MDZ (1-50 ng) were combined with 100 mM potassium phosphate buffer, pH 7.4.
Unknowns and standards were extracted with 5 mL ethyl acetate and the upper organic layer transferred to clean tubes. The solvent was evaporated to dryness under a stream of nitrogen. The remaining solvent was reconstituted in 100 μL derivatizing reagent (10% N-methyl-N-(t-butyldimethylsilyl)trifluoroacetamide in acetonitrile).
At the end of this period, the medium was replaced with medium not containing vitamin D (except that contributed by the 5% FBS). Next, 4 μM MDZ was added to the apical (luminal) or basolateral (serosal) medium of the cells.
Parent drug and metabolite concentrations measured at 1 and 2 hours after MDZ administration were used for computation. The amount of 1'-OH-MDZ formed during this interval was determined as the sum of metabolite in the apical and basolateral compartments at 2 hours minus the total amount measured at 1 hour.
Because the incubation medium contained significant amounts of FBS, the fraction of MDZ bound to culture medium proteins was measured by equilibrium dialysis. […] The unbound concentration of MDZ in the apical and basolateral compartments during cell culture was calculated as the product of the experimentally determined MDZ-free fraction and total MDZ concentration. Since MDZ concentrations in the apical and basolateral compartments were not at equilibrium during the 1-2 hour MDZ incubation interval, the intracellular reaction was assumed to be driven by a MDZ concentration that was more closely aligned with the concentration in the basolateral compartment.
At the end of this period, the medium was replaced with medium containing neither serum nor vitamin D. Next, MDZ (4 μM) was added to the apical compartment.

[1] = Intrinsic 1'-OH-MDZ formation clearance, human jejunal mucosa/microsomes; assay type: in vitro ADME; conditions: jejunal microsomes; eight human jejunal preparations, Vmax/Km; read-out: Microsomal intrinsic clearance (1'-OH-MDZ formation), jejunum
Method: (§1) For comparison, an intrinsic 1'-OH-MDZ formation clearance was determined for eight paired human duodenal and jejunal mucosae. The mucosal mass was removed from ~1 foot sections of duodenum and jejunum and total homogenate and microsomes were prepared, as described above. […] Microsomes were incubated with varying concentrations of MDZ for determination of Km and Vmax parameters for 1'-hydroxylation.
(§2) The total amount of microsomal protein per gram of mucosa was determined from the following relationship: [formula] This calculation assumes that CYP3A4 found in mucosal homogenate resides exclusively within the microsomal fraction. The microsomal intrinsic formation clearance was calculated as the ratio of Vmax to Km. The intrinsic 1'-OH-MDZ formation clearance per gram of mucosa was calculated as the product of the microsomal intrinsic formation clearance and the computed amount of microsomal protein per gram of mucosa.

[2] = test system: human jejunal microsomes (CYP3A); experiment: as above; assay type: in vitro ADME; conditions: eight human jejunal preparations, Vmax/Km; listed as MDZ
Method: as §1, §2

[3] = M. F. Paine et al.; cited from earlier work
[4] = Intrinsic 1'-OH-MDZ formation clearance, human duodenal mucosa/microsomes; assay type: in vitro ADME; conditions: duodenal microsomes; eight human duodenal preparations, Vmax/Km; read-out: Microsomal intrinsic clearance (1'-OH-MDZ formation), duodenum
Method: as §1, §2

[5] = test system: human duodenal microsomes (CYP3A); experiment: as above; assay type: in vitro ADME; conditions: eight human duodenal preparations, Vmax/Km; listed as MDZ
Method: as §1, §2

Caco-2 cells = experiment: Apical/basolateral distribution of midazolam and metabolite across Caco-2 monolayers
From the text: At the end of this period, the medium was replaced with medium not containing vitamin D (except that contributed by the 5% FBS).

CYP3A = conditions: K. E. Thummel et al.; cited from earlier work
[6] = 1α,25-(OH)2 -D3 pretreated cells

Chain of CYP3A (Caco-2 cells) (P08684 2-503): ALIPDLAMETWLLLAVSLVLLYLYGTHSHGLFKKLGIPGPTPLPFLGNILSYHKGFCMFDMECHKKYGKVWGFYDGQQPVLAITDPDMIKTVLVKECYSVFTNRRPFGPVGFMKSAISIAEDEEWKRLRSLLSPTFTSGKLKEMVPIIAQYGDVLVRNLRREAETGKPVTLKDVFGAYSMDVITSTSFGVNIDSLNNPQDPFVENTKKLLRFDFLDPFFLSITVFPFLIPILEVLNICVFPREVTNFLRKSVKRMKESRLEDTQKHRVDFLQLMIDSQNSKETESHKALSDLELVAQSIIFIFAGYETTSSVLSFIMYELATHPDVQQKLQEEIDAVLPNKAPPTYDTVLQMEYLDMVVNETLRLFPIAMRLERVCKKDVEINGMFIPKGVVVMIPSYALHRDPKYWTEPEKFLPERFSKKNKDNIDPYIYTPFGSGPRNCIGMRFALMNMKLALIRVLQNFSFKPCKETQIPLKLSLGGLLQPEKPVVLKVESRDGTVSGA

In the case of `Cc1ncc2n1-c1ccc(Cl)cc1C(c1ccccc1F)=NC2` [midazolam], the “predicted unbound intracellular MDZ concentration in Caco-2 cells” value (CYP3A (Caco-2 cells)) is reported as ~ 0.07 μM, the “rate of 1'-OH-MDZ formation over time” value (CYP3A (Caco-2 cells); 0-24 h, FIG. 6A) is reported as “remained roughly constant after 6 hours” and the “time until 1'-OH-MDZ detectable after MDZ administration” value (CYP3A (Caco-2 cells); 4 μM MDZ to either compartment, cells treated with 0.25 μM 1α,25-(OH)2 -D3) is reported as ≤ 1 h. For the same compound, the “1'-Hydroxymidazolam formation rate” value (CYP3A (Caco-2 cells); 1-2 h incubation interval, 4 μM MDZ apical) was 75.9 pmol/min/g cells, the “unbound midazolam concentration, apical” value (CYP3A (Caco-2 cells); 1-2 h interval) was 280 nM and the “unbound midazolam concentration, basolateral” value (CYP3A (Caco-2 cells); 1-2 h interval) was 66.3 nM. For the same compound, the “intrinsic 1'-OH-MDZ formation clearance, Caco-2 cells” value (CYP3A (Caco-2 cells); 1-2 h interval, non-saturating) was 1.14 ml/min/g cells, the “average midazolam concentration, apical” value (CYP3A (Caco-2 cells); 1-2 h interval, total) was 2740 nM and the “average midazolam concentration, basolateral” value (CYP3A (Caco-2 cells); 1-2 h interval, total) was 650 nM. For the same compound, the “intrinsic 1'-OH-MDZ formation clearance of Caco-2 cells as percent of duodenal mucosa” value (CYP3A (Caco-2 cells); [6]) was 30%, the “intrinsic 1'-OH-MDZ formation clearance of Caco-2 cells as percent of jejunal mucosa” value (CYP3A (Caco-2 cells); [6]) was 31% and the microsomal CLint [1] was 118 ± 98.2 µL/min/mg. The “Microsomal intrinsic clearance (1'-OH-MDZ formation), jejunum” value [2] was 118.3 μl/min/mg protein, the “site of midazolam glucuronidation in vivo” value [3] was “occurs primarily in the liver and not in the intestine in vivo” and the microsomal CLint [4] was 134 ± 109 µL/min/mg. For the same compound, the “Microsomal intrinsic clearance (1'-OH-MDZ formation), duodenum” value [5] was 133.8 μl/min/mg protein, the “apical-to-basolateral concentration gradient of parent compound” value (Caco-2 cells; apical administration of 4 μM MDZ, 12-24 h) was “approximately 1.4 fold” and the “distribution of parent compound after basolateral administration” value (Caco-2 cells; by 12 hours) was “distributed preferentially to the apical medium”. For the same compound, the Km (CYP3A) was ~3.4 µM.
